Tested on: 5-HT3 receptors
Test: antagonism of the von Bezold-Jarisch reflex (bradycardia) induced by 5-HT in the anaesthetised rat
Assay type: in vivo
Settings: i.v., hydrochloride salt, 5 min before 5-HT 30 μg/kg, urethane-anaesthetised rats
Method: Temporary bradycardia is induced by administration of 5-HT (serotonin) to anaesthetised rats via jugular vein (von Bezold Jarisch Reflex) (A. S. Paintal, Physiol. Rev., 53, 159-210 (1973)).
The compounds of the present invention were evaluated for antagonism of the von Bezold-Jarisch reflex induced by 5-HT in the anaesthetised rat according to the following method.
Rats were anaesthetised with urethane (1 g/kg, intraperitoneally) and blood pressure and heart rate recorded from left femoral artery. Percent inhibition was calculated from bradycardia induced by 5-HT (30 μg/kg) given 5 minutes following intrajugular administration of a compound of the invention, taking the bradycardia induced by the intrajugular administration of 5-HT. The compounds of the present invention were tested in the form of their hydrochloride salts.

`CCCCCCCCn1nc(C(=O)N[C@@H]2C[C@@H]3CN(C)C[C@H](C2)N3C)c2ccccc21` [Example 18, Endo-3,9-dimethyl-3,9-diazabicyclo[3.3.1]non-7-yl 1-(n-octyl)indazole-3-carboxamide] was tested, and the “Percent Inhibition” value (1.0 μg/kg) was 15%.
For `CN1[C@@H]2CSC[C@H]1C[C@@H](OC(=O)c1nn(C)c3ccccc13)C2` [Example 3, (Endo-9-methyl-3-thia-9-azabicyclo[3.3.1]non-7-yl) 1-methylindazole-3-carboxylate], the “Percent Inhibition” value (0.1 μg/kg) was 43% and the “Percent Inhibition” value (1.0 μg/kg) was 67%.
In the case of `CN1C[C@H]2C[C@@H](OC(=O)c3c[nH]c4ccccc34)C[C@@H](C1)N2C` [Example 9, (Endo-3,9-dimethyl-3,9-diazabicyclo[3.3.1]non-7-yl) 1H-indole-3-carboxylate], the “Percent Inhibition” value (0.1 μg/kg) is reported as 28%, the “Percent Inhibition” value (1.0 μg/kg) is reported as 58% and the “Percent Inhibition” value (10 μg/kg) is reported as 91%.
In the case of `CN1[C@@H]2COC[C@H]1C[C@@H](NC(=O)c1c[nH]c3ccccc13)C2` [Example 7, Endo-9-methyl-3-oxa-9-azabicyclo[3.3.1]non-7-yl 1H-indole-3-carboxamide], the “Percent Inhibition” value (1.0 μg/kg) is reported as 36% and the “Percent Inhibition” value (10 μg/kg) is reported as 72%.
For `CN1C[C@H]2C[C@@H](NC(=O)c3c[nH]c4ccccc34)C[C@@H](C1)N2C` [Example 11, Endo-3,9-dimethyl-3,9-diazabicyclo[3.3.1]non-7-yl 1H-indole-3-carboxamide], the “Percent Inhibition” value (1.0 μg/kg) was 39% and the “Percent Inhibition” value (10 μg/kg) was 79%.
With `CN1[C@@H]2COC[C@H]1C[C@@H](OC(=O)c1c[nH]c3ccccc13)C2` [Example 2, (Endo-9-methyl-3-oxa-9-azabicyclo[3.3.1]non-7-yl) 1H-indole-3-carboxylate] the “Percent Inhibition” value (0.1 μg/kg) was 54% and the “Percent Inhibition” value (1.0 μg/kg) was 93%.
With `COc1cc(N)c(Cl)cc1C(=O)O[C@H]1C[C@H]2CSC[C@@H](C1)N2C` [Example 5, (Endo-9-methyl-3-thia-9-azabicyclo[3.3.1]non-7-yl) 4-amino-5-chloro-2-methoxy benzoate] the “Percent Inhibition” value (10 μg/kg) was 58%.
In the case of `CN(C)CCn1nc(C(=O)N[C@@H]2C[C@@H]3CN(C)C[C@H](C2)N3C)c2ccccc21` [Example 19, Endo-3,9-dimethyl-3,9-diazabicyclo[3.3.1]non-7-yl 1-[2-(dimethylamino)ethyl]indazole-3-carboxamide], the “Percent Inhibition” value (1.0 μg/kg) is reported as 10%.
In the case of `CN1C[C@H]2C[C@@H](NC(=O)c3nn(Cc4ccccc4)c4ccccc34)C[C@@H](C1)N2C` [Example 17, Endo-3,9-dimethyl-3,9-diazabicyclo[3.3.1]non-7-yl 1-benzylindazole-3-carboxamide], the “Percent Inhibition” value (0.1 μg/kg) is reported as 43% and the “Percent Inhibition” value (1.0 μg/kg) is reported as 91%.
With `COc1cc(N)c(Cl)cc1C(=O)N[C@@H]1C[C@@H]2CN(C)C[C@H](C1)N2C` [Example 22, Endo-3,9-dimethyl-3,9-diazabicyclo[3.3.1]non-7-yl 4-amino-5-chloro-2-methoxyphenylcarboxyamide] the “Percent Inhibition” value (1.0 μg/kg) was 43% and the “Percent Inhibition” value (10 μg/kg) was 89%.
In the case of `CN1C[C@H]2C[C@@H](NC(=O)c3nn(C)c4ccccc34)C[C@@H](C1)N2C` [Example 12, Endo-3,9-dimethyl-3,9-diazabicyclo[3.3.1]non-7-yl 1-methylindazole-3-carboxamide], the “Percent Inhibition” value (0.1 μg/kg) is reported as 25% and the “Percent Inhibition” value (1.0 μg/kg) is reported as 71%.
`CCn1nc(C(=O)N[C@@H]2C[C@@H]3CN(C)C[C@H](C2)N3C)c2ccccc21` [Example 15, Endo-3,9-dimethyl-3,9-diazabicyclo[3.3.1]non-7-yl 1-ethylindazole-3-carboxamide] was tested, and the “Percent Inhibition” value (0.1 μg/kg) was 42% and the “Percent Inhibition” value (1.0 μg/kg) was 91%.
In the case of `CC(C)n1nc(C(=O)N[C@@H]2C[C@@H]3CN(C)C[C@H](C2)N3C)c2ccccc21` [Example 16, Endo-3,9-dimethyl-3,9-diazabicyclo[3.3.1]non-7-yl 1-(2-propyl)indazole-3-carboxamide], the “Percent Inhibition” value (0.1 μg/kg) is reported as 59%.
In the case of `CN1C[C@H]2C[C@@H](NC(=O)c3n[nH]c4ccccc34)C[C@@H](C1)N2C` [Example 13], the “Percent Inhibition” value (1.0 μg/kg) is reported as 28% and the “Percent Inhibition” value (10 μg/kg) is reported as 95%.
`CN1[C@@H]2CSC[C@H]1C[C@@H](OC(=O)c1c[nH]c3ccccc13)C2` [Example 1, (Endo-9-methyl-3-thia-9-azabicyclo[3.3.1]non-7-yl) 1H-indole-3-carboxylate] was tested, and the “Percent Inhibition” value (0.1 μg/kg) was 51% and the “Percent Inhibition” value (1.0 μg/kg) was 85%.
In the case of `CN1[C@@H]2COC[C@H]1C[C@@H](OC(=O)c1nn(C)c3ccccc13)C2` [Example 4, (Endo-9-methyl-3-oxa-9-azabicyclo[3.3.1]non-7-yl) 1-methylindazole-3-carboxylate], the “Percent Inhibition” value (0.1 μg/kg) is reported as 59% and the “Percent Inhibition” value (1.0 μg/kg) is reported as 80%.

Reference: patent US5187166A, “Azabicyclo derivatives and their use as antiemetics” (Nisshin Flour Milling Co., Ltd., priority 1990, dated 1993)
